From PMC5652740, “Inhibition of HIV-1 infection in humanized mice and metabolic stability of protein phosphatase-1-targeting small molecule 1E7-03” (Oncotarget, 2017)

Tested on: RSP13 and β-actin mRNA in CEM T cells
Assay: Cellular transcription, RSP13 and β-actin mRNA by real-time RT-PCR
Assay type: cell-based
Conditions: 10 μM, in words
Protocol: For quantitative analysis of HIV-1 RNA, CEM T cells were infected with HIV-1-LUC-G virus. Cells were treated with 10 μM 1E7-03, 10 μM DP1, 10 μM DP3, 5 μM AZT or 5 μM 3TC and control cells were untreated or treated with DMSO. Total RNA was isolated using Trizol Reagent (Invitrogen, Carlsbad, CA) according to the manufacturer's protocol. Total RNA (100 ng) was reverse transcribed to cDNA using Superscript™ RT-PCR kit (Invitrogen, Carlsbad, CA). Hexamers and oligo-dT were used as primers. For real-time PCR analysis, cDNA was amplified using Roche LightCycler 480 (Roche Diagnostics) and SYBR Green1 Master mix (Roche Diagnostics). PCR was run for 45 cycles and each cycle included denaturation at 95°C for 10 seconds, annealing at 60°C for 10 seconds, and extension at 72°C for 10 seconds. Quantification of env and gag was carried using 18S RNA as a normalization standard. Quantification of housekeeping genes, β-actin and RSP13 was carried relative to 18S RNA. Mean Cp values were determined and ΔΔCt method was used to calculate relative expression levels. Unpaired t-test was used to test statistical significance.
The following primer sequences were used: env, forward - […], reverse-[…]; gag, forward- […], reverse- […]; β-actin, forward- […], reverse-[…]; RSP13, forward- […], reverse- […]; and 18SrRNA, forward- […], reverse- […].

CCNC(=O)NC(=O)C(C)OC(=O)c1c2c(nc3ccccc13)/C(=C/c1ccc(OC)c(OC)c1)CC2 (centres unmarked) [1E7-03]
RSP13 mRNA expression: slight induction
β-actin mRNA expression: slight induction
